Measurements reported in PMC7534389, “Thiazolidin-2-cyanamides derivatives as novel potent Escherichia coli β-glucuronidase inhibitors and their structure–inhibitory activity relationships” (Journal of Enzyme Inhibition and Medicinal Chemistry, 2020).
Where “and” joins values, the source holds several entries; their conditions need not be identical. Identical values can stand only once. Like-named read-outs stand apart in the source and are kept apart here.

What was measured:
[1] = target: T1, Escherichia coli β-glucuronidase (EcGUS) (Escherichia coli, UniProt P05804); assay: EcGUS-mediated PNPG hydrolysis inhibition assay (screening at 10 µM and IC50); format: biochemical
T1 construct: inferred from the pET28a vector and Ni-NTA purification; made in house; host or cells: E. coli BL21 (DE3)
T1 sequence (P05804 whole entry): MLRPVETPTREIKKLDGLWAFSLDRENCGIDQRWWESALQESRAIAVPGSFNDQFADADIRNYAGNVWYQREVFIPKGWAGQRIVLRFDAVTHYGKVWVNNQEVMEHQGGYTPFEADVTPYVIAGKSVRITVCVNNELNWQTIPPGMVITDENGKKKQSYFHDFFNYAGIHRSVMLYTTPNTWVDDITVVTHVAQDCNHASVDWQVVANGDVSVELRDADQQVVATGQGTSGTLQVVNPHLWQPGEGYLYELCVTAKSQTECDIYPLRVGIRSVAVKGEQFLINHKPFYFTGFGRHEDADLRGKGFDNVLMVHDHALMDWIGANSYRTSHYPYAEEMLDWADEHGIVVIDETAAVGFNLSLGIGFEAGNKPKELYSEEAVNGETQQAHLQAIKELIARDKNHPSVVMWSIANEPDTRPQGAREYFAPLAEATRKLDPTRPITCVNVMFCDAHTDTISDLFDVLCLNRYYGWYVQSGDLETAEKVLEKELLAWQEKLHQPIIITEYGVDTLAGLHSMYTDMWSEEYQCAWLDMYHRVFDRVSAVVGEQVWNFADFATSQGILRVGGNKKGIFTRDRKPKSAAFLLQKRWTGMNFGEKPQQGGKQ
Method: EcGUS was prepared according to our previous report. The recombinant strain were incubated in 200 mL of LB broth (Tryptone, 10 g/L; yeast extract, 5 g/L; NaCl, 10 g/L; pH 7.0) containing 1% kanamycin at 220 rpm and 37 °C until OD600 reached 0.5–0.6. Afterward, IPTG (final concentration, 0.5 mM) was added and the culture was incubated at 220 rpm and 16 °C for 16 h to induce the expression of β-glucuronidase. The cells were collected by centrifugation and suspended in PBS buffer (pH 7.4), and then applied to extract the enzyme by sonication. Finally, pure EcGUS was obtained from the cell-free extracts through a Ni-NTA column (EMD Millipore Corp., MA, USA). Protein concentration was determined using the BCA Protein Assay Kit (Beyotime, Shanghai, China) according to the manufacturer’s instruction, and its purity was determined by SDS-PAGE.
Thirteen thiazolidin-2-cyanamide derivatives were subjected to screening for potent EcGUS inhibitor. The inhibitory effects of these compounds were determined by measuring the PNP formation generated from PNPG by EcGUS. Briefly, the assays were conducted in 96-well flat-bottomed tissue culture plates (Nunc, Denmark) with a total volume of 100 µL which consisted of 10 µL EcGUS (final concentration, 2 µg/mL), 70 µL PBS buffer (pH 7.4), 10 µL test compound or DSL (final concentration, 10 µM) and 10 µL PNPG (final concentration, 250 µM). DSL was used as a positive control, and 1%DMSO was used as blank control. All reactions were performed in triplicate and the produced PNP was monitored by measuring absorbance at 405 nm in a plate reader (SpectraMax Plus384, Molecular Devices, CA, USA) after incubating at 37 °C for 30 min. The PNP concentration was determined from a standard curve (0, 10, 20, 40, 60, 80, 100, 120 µM PNP) in PBS buffer (pH 7.4). Relative activity was defined as a percent of PNP formation in the presence of test compound within 30 min compared with the blank control group.
IC50 values of the 13 thiazolidin-2-cyanamide derivatives against EcGUS were investigated using similar assays as described in Section 2.4. The reaction conditions are as follows: 10 µL pure enzyme (final concentration, 2 µg/mL), 70 µL PBS buffer (pH 7.4), 10 µL test compound or DSL (final concentration, 0.001–5000 µM) and 10 µL PNPG (final concentration, 250 µM) incubating at 37 °C for 30 min. The IC50 values were calculated by plotting the concentration–response curve using GraphPad Prism 6.0 (GraphPad Software, La Jolla, CA).
(§1) All experiments were carried out in triplicate and repeated at least two times. All data were expressed as mean ± standard deviation (SD). The IC50 values were defined as the concentration of inhibitor that is required for 50% inhibition and evaluated by nonlinear regression using GraphPad Prism 6.0 software (GraphPad Software, La Jolla, CA).

[2] = target: T1, Escherichia coli β-glucuronidase (EcGUS); assay: Inhibition kinetic analysis (Lineweaver–Burk plots, Ki) against EcGUS; format: biochemical; conditions: for Ki: PNPG 0.2-1.0 mM, nonlinear regression; for Inhibition type: from intersection point in Lineweaver–Burk plots
Method: To further characterise the inhibition behaviour of discovered inhibitors, multiple concentrations of compounds (0.5–12 µM) or DSL (50–100 µM) and PNPG (0.2, 0.3, 0.5, and 1.0 mM) were applied to determine the corresponding reaction rates. The inhibition type was evaluated through determining the intersection point in Lineweaver–Burk plots, and the Ki values were calculated by nonlinear regression of different inhibition types using the GraphPad Prism 6.0 (GraphPad Software, La Jolla, CA).
as §1

[3] = system: EcGUS; conditions: cited from earlier work
[4] = 10 µM compound, PNPG 250 µM, EcGUS 2 µg/mL, PBS pH 7.4, 37 °C, 30 min, read-out: Inhibition rate at 10 μM
[5] = PNPG 250 µM, EcGUS 2 µg/mL, PBS pH 7.4, 37 °C, 30 min
[6] = pH 7.4, read-out: Inhibition rate at 10 μM

SMILES	inhibition at 10 µM [1, 4] [%]	IC50 [1, 5] [µM]	melting point [°C]	Ki [2]	Inhibition type [2]	Inhibition type against EcGUS [3]	inhibition at 10 µM [1, 6] [%]
N#C/N=C1\SCCN1C(=O)c1ccc(-c2ccc(Cl)cc2)o1 [Compound 3]	80.2 ± 1.8	4.7 ± 0.6	149 to 150	< 3.5 µM and 2 µM	competitive EcGUS inhibitors		
N#C/N=C1\SCCN1C(=O)c1ccc(-c2ccc(F)cc2)o1 [Compound 5]	66.5 ± 1.2	7.3 ± 0.7	129 to 130				
CC(C)=CCc1c(-c2ccc(O)cc2O)oc2c([C@H]3C=C(C)C[C@@H](c4ccc(O)cc4O)[C@@H]3C(=O)c3ccc(O)cc3O)c(O)cc(O)c2c1=O [kuwanon G]						mixed-type inhibition	
COc1ccc(-c2ccc(C(=O)N3CCS/C3=N\C#N)o2)cc1 [Compound 12]	49.6 ± 0.6	18.5 ± 2.1	151 to 152				
N#C/N=C1\SCCN1C(=O)c1ccc(-c2ccc(Br)cc2)o1 [Compound 10]	68.7 ± 1.8	10.8 ± 0.2	169 to 170				
CCOC(=O)/C=C/c1ccc(O)c(O)c1 [caffeic acid ethyl ester]						potent competitive inhibitors	
N#C/N=C1\SCCN1C(=O)c1ccc(-c2ccccc2[N+](=O)[O-])o1 [Compound 8]		< 10	135 to 136				31.4 ± 1.8
N#C/N=C1\SCCN1C(=O)c1ccc(-c2c(F)cccc2F)o1 [Compound 7]	64.1 ± 1.2	9.3 ± 1.1	136 to 137				
N#C/N=C1\SCCN1C(=O)c1ccc(-c2cccc(Cl)c2)o1 [Compound 2]	95.2 ± 0.3	1.2 ± 0.2	166 to 167	< 3.5 µM and 0.7 µM	competitive EcGUS inhibitors		
O=c1cc(-c2ccc(O)cc2)oc2cc(O)c(O)c(O)c12 [Scutellarein]						potent competitive inhibitors	
N#C/N=C1\SCCN1C(=O)c1ccc(-c2ccccc2F)o1 [Compound 4]	61.6 ± 0.6	11.9 ± 1.5	137 to 138				
N#C/N=C1\SCCN1C(=O)c1ccc(-c2ccccc2Cl)o1 [Compound 1]	77.2 ± 0.6	5.7 ± 0.6	101 to 102	< 3.5 µM and 3.5 µM	competitive EcGUS inhibitors		
Clc1ccc2c(c1)C(N1CCNCC1)=Nc1ccccc1O2 [amoxapine]						uncompetitive inhibition	
CC(C)=CC[C@]12Oc3cc(O)c([C@H]4C=C(C)C[C@H](c5ccc(O)cc5O)[C@H]4C(=O)c4ccc(O)cc4O)c(O)c3C(=O)[C@@]1(O)Oc1cc(O)ccc12 [sanggenon C]						mixed-type inhibition	
N#C/N=C1\SCCN1C(=O)c1ccc(-c2ccc([N+](=O)[O-])cc2)o1 [Compound 9]	40.3 ± 3.2	22.2 ± 2.5	> 290				
O=C(O)[C@@H](O)[C@H]1OC(=O)[C@H](O)[C@H]1O [D-Saccharic acid 1,4-lactone, D-saccharic acid-1,4-lactone, reference compound]		67.3 ± 0.6		30.9 ± 2.2 µM	mixed inhibitors		11.6 ± 0.6
N#C/N=C1\SCCN1C(=O)c1ccc(-c2ccc(F)cc2F)o1 [Compound 6]	43.9 ± 0.7	23.1 ± 1.5	140 to 141				
N#C/N=C1\SCCN1C(=O)c1ccc(-c2ccccc2)o1 [Compound 13]	61.8 ± 1.3	10.7 ± 0.5	143 to 144				
Cc1ccc(-c2ccc(C(=O)N3CCS/C3=N\C#N)o2)cc1 [Compound 11]	33.5 ± 2.5	22.3 ± 2.6	151 to 152				
